The values below come from patent US20100022541A1, “Chemical inhibitors of bacterial heptose synthesis, methods for their preparation and biological applications of said inhibitors” (priority 2006, published 2010).

pIC50: −log10 of the molar value.

T1 sequence (P76658 whole entry): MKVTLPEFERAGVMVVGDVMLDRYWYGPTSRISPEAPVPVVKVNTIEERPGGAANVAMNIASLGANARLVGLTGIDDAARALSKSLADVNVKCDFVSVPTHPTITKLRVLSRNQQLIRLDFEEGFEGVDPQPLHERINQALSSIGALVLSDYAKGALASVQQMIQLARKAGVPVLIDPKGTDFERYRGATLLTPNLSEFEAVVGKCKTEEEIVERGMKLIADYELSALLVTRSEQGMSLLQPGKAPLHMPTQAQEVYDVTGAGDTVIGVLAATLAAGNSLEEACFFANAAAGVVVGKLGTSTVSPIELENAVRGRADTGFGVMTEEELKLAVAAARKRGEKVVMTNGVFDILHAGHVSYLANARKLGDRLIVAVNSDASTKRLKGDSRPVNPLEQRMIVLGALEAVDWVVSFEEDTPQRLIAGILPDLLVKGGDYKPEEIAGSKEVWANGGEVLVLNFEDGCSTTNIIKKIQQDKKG

One test concerns the target T1, RfaE (Escherichia coli, UniProt P76658).
T1 construct: made in house; host or cells: E. coli
Briefly: Inhibition of the enzymatic activity of RfaE (HTS luminescent or fluorescent biochemical assay). Further details: species or system E. coli. To be noted: dose-response, FIG. 1. Here is the method:
According to another object, the invention also relates to a method for assessing RfaE enzymatic activity. • Said method comprises • pre-incubating at room temperature • DMSO or inhibitor to be tested dissolved in DMSO and RfaE in an assay buffer • and either • adding a reaction mixture composed of RfaE, β-heptose-7-phosphate, ATP, in the assay buffer and incubating at room temperature • adding a revelation mixture composed of luciferase, D-luciferin and N-acetylcysteamine • measuring the luminescence intensity and converting into inhibition % to further calculate the IC50 values; • or • adding a reaction mixture composed of RfaE, β-heptose-7-phosphate ATP, pyruvate kinase, phosphoenolpyruvate, lactate dehydrogenase and NADH in said assay buffer, • measuring the fluorescence intensity of NADH kinetically and deriving inhibition % from fitted initial velocities, to further calculate the IC50 values.
Inhibition of the Enzymatic Activity of RfaE
RfaE is a kinase belonging to the ribokinase family. It catalyses an essential step of the biosynthesis of L-ADP-Heptose, namely the phosphorylation of β-heptose-7-phosphate (H7P) into β-heptose-1,7-bisphosphate (H17P). RfaE assays as described in the literature are essentially based on direct HLPC detection of the substrates H7P and ATP, and of the products H17P and ADP, raising obvious limitations for HTS applications. The assays described below are based either on luminescent ATP detection, or on fluorescent ADP detection. They are easily amenable to miniaturized formats and fast readouts as required by HTS.
The assay buffer “AB” contains 50 mM Hepes pH7.5, 1 mM MnCl2, 25 mM KCl, 0.012% Triton-X100 and 1 mM DTT. The following components are added in a white polystyrene Costar plate up to a final volume of 31 μL: 3 μL DMSO, or inhibitor dissolved in DMSO and 28 μL RfaE in AB. After 30 min of pre-incubation at room temperature, 29 μL of Substrates mix in AB are added in each well to a final volume of 60 μL. This reaction mixture is then composed of 3 nM RfaE (produced in house from E. coli), 0.2 μM β-heptose-7-phosphate (in house synthesis) and 0.2 μM ATP (Sigma) in assay buffer. After 40 min of incubation at room temperature, 200 μL of the revelation mix are added to a final volume of 260 μL, including the following constituents at the respective final concentrations: 2 nM luciferase (Sigma), 30 μM D-luciferin (Sigma), 100 μM N-acetylcysteamine (Aldrich). Luminescence intensity is immediately measured on an Analyst-HT (Molecular Devices) and converted into inhibition percentages. For IC50 determinations, the inhibitor is tested at 6 to 10 different concentrations, and the related inhibitions are fitted to a classical langmuir equilibrium model using XLFIT (IDBS).
The assay buffer “AB” contains 50 mM Hepes pH7.5, 1 mM MnCl2, 25 mM KCl, 0.012% Triton-X100 and 1 mM DTT. The following components are added in a black polystyrene Costar plate up to a final volume of 50 μL: 5 μL DMSO, or inhibitor dissolved in DMSO and 45 μL RfaE in AB. After 30 min of pre-incubation at room temperature, 50 μL of Substrates-revelation mix in AB are added in each well to a final volume of 100 μL. This reaction mixture is then composed of 66 μM RfaE (produced in house from E. coli), 1 μM β-heptose-7-phosphate (in house synthesis), 50 μM ATP (Sigma), 5 u/mL Pyruvate Kinase (Sigma), 50 μM phosphoenolpyruvate (Sigma), 5 u/mL Lactate dehydrogenase (Sigma) and 2.5 μM NADH (Sigma) in assay buffer. Fluorescence intensity of NADH (λex=360 nm, λem=520 nm) is immediately measured kinetically by a Fluostar Optima (BMG). Inhibition percentages are derived from fitted initial velocities. For IC50 determinations, the inhibitor is tested at 6 to 10 different concentrations, and the related inhibitions are fitted to a classical langmuir equilibrium model using XLFIT (IDBS).
As for `Cc1oc(-c2cccc([N+](=O)[O-])c2)nc1C(=O)N(CC(=O)O)Cc1ccccn1` [Example XXIII, [{[5-methyl-2-(3-nitrophenyl)-1,3-oxazol-4-yl]carbonyl}(pyridin-2-ylmethyl)amino]acetic Acid], the “Inhibition of RfaE biochemical activity (FIG. 1)” value is “Dose Dependent Inhibition”.

Still in this test, the particulars now being: inhibitor tested at 6 to 10 concentrations; 30 min pre-incubation at room temperature.
For orientation: pIC50 means −log10 of the IC50, conventionally taken in molar units. As for `Cc1oc(-c2cccc([N+](=O)[O-])c2)nc1C(=O)N(CC(=O)O)Cc1ccccn1` [Example XXIII, [{[5-methyl-2-(3-nitrophenyl)-1,3-oxazol-4-yl]carbonyl}(pyridin-2-ylmethyl)amino]acetic Acid], the negative logarithm of the IC50 (pIC50) is 5.42. With `Cc1oc(-c2ccccc2)nc1C(=O)N(CC(=O)O)Nc1ccccn1` [XXXI, {1-[(5-methyl-2-phenyl-1,3-oxazol-4-yl)carbonyl]-2-pyridin-2-ylhydrazino}acetic Acid], the pIC50 was 4.19.

`Cc1oc(-c2ccccc2)nc1C(=O)N(CC(=O)O)Cc1ccccn1` [XII, [[(5-methyl-2-phenyl-1,3-oxazol-4-yl)carbonyl](pyridin-2-ylmethyl)amino]acetic Acid] had a pIC50 of 4.29.

With `COc1cccc(-c2nc(C)c(C(=O)N(CC(=O)O)Cc3ccccn3)o2)c1` [III, [{[2-(3-methoxyphenyl)-4-methyl-1,3-oxazol-5-yl]carbonyl}(pyridin-2-ylmethyl)amino]acetic Acid], the pIC50 is 4.77.

In the case of `CC(=O)c1cccc(-c2nc(C)c(C(=O)N(CC(=O)O)Cc3ccccn3)s2)c1` [XXXVI, [{[2-(3-acetylphenyl)-4-methyl-1,3-thiazol-5-yl]carbonyl}(pyridin-2-ylmethyl)amino]acetic Acid], the pIC50 is 3.67. The compound `Cc1oc(-c2ccccc2N)nc1C(=O)N(CC(=O)O)Cc1ccccn1` [XXVI, [{[2-(2-aminophenyl)-5-methyl-1,3-oxazol-4-yl]carbonyl}(pyridin-2-ylmethyl)amino]acetic Acid] gave a pIC50 of 4.51. With `Cc1oc(-c2ccccc2)nc1C(=O)N(CC(=O)O)Cc1nccs1` [XXXIII, [[(5-methyl-2-phenyl-1,3-oxazol-4-yl)carbonyl](1,3-thiazol-2-ylmethyl)amino]acetic Acid], the pIC50 is 3.96. The same measure, in the same setting: under `COc1cccc(-c2nc(C(=O)N(CC(=O)O)Cc3ccccn3)c(C)o2)c1` [Example XX, [{[2-(3-methoxyphenyl)-5-methyl-1,3-oxazol-4-yl]carbonyl}(pyridin-2-ylmethyl)amino]acetic Acid] stands 4.82; under `Cc1nc(-c2ccccc2)sc1C(=O)N(CC(=O)O)Cc1ccccn1` [IX, [[(4-methyl-2-phenyl-1,3-thiazol-5-yl)carbonyl](pyridin-2-ylmethyl)amino]acetic Acid], 4.28; under `COc1cccc(-c2nc(C)c(C(=O)N(CC(=O)O)Cc3nc4ccccc4s3)o2)c1` [XXIX, ((1,3-benzothiazol-2-ylmethyl){[2-(3-methoxyphenyl)-4-methyl-1,3-oxazol-5-yl]carbonyl}amino)acetic Acid], 6.62.

On to “[{[2-(4-bromophenyl)-5-methyl-1,3-oxazol-4-yl]carbonyl}(pyridin-2-ylmethyl)amino]acetic Acid [XVII]”, for which the pIC50 was 4.57. Regarding `Cc1nn(-c2ccccc2)nc1C(=O)N(CC(=O)O)Cc1ccccn1` [XI, [[(5-methyl-2-phenyl-2H-1,2,3-triazol-4-yl)carbonyl](pyridin-2-ylmethyl)amino]acetic Acid], the pIC50 was 4.32.

In the case of `COc1cccc(-c2nc(C(=O)N(CC(=O)O)Cc3ccc4ccccc4n3)c(C)o2)c1` [XXXIV, [{[2-(3-methoxyphenyl)-5-methyl-1,3-oxazol-4-yl]carbonyl}(quinolin-2-ylmethyl)amino]acetic Acid], the pIC50 was 4.92. Compound `Cc1oc(-c2cccc(NC(=O)C3CC3)c2)nc1C(=O)N(CC(=O)O)Cc1ccccn1` [XXVIII, {[(2-{3-[(cyclopropylcarbonyl)amino]phenyl}-5-methyl-1,3-oxazol-4-yl)carbonyl](pyridin-2-ylmethyl)amino}acetic Acid] had a pIC50 of 4.85. The same measure, in the same setting: under `Cc1nc(-c2ccccc2)oc1C(=O)N(CC(=O)O)Cc1ccc(-c2ccccc2F)o1` [XXXII, ([(4-methyl-2-phenyl-1,3-oxazol-5-yl)carbonyl]{[5-(2-fluorophenyl)-2-furyl]methyl}amino)acetic Acid] stands 3.90; under `O=C(O)CN(Cc1ccccn1)C(=O)c1nc(-c2ccccc2)oc1CN1CCOCC1` [II, [{[5-(morpholin-4-ylmethyl)-2-phenyl-1,3-oxazol-4-yl]carbonyl}(pyridin-2-ylmethyl)amino]acetic Acid], 3.71. Same read-out and setting: under `Cc1nc(-c2ccc(N)c([N+](=O)[O-])c2)sc1C(=O)N(CC(=O)O)Cc1ccccn1` [XXXVII, [{[2-(4-amino-3-nitrophenyl)-4-methyl-1,3-thiazol-5-yl]carbonyl}(pyridin-2-ylmethyl)amino]acetic Acid] stands 4.89. `Cn1nc(-c2ccccc2)cc1C(=O)N(CC(=O)O)Cc1ccccn1` [VIII, [[(1-methyl-3-phenyl-1H-pyrazol-5-yl)carbonyl](pyridin-2-ylmethyl)amino]acetic Acid] gave a pIC50 of 4.24.

`Cc1oc(-c2cccc(Br)c2)nc1C(=O)N(CC(=O)O)Cc1ccccn1` [XVIII, [{[2-(3-bromophenyl)-5-methyl-1,3-oxazol-4-yl]carbonyl}(pyridin-2-ylmethyl)amino]acetic Acid] showed a pIC50 of 5.00. Still for that read-out and setting: the figure for `Cc1oc(-c2ccccc2)cc1C(=O)N(CC(=O)O)Cc1ccccn1` [Example X, [(2-methyl-5-phenyl-3-furoyl)(pyridin-2-ylmethyl)amino]acetic Acid] is 4.38.

Regarding `Cc1oc(-c2ccccc2[N+](=O)[O-])nc1C(=O)N(CC(=O)O)Cc1ccccn1` [Example XXII, [{[5-methyl-2-(2-nitrophenyl)-1,3-oxazol-4-yl]carbonyl}(pyridin-2-ylmethyl)amino]acetic Acid], the pIC50 is 3.85. On to `Cc1nc(-c2ccc3ccccc3c2)sc1C(=O)N(CC(=O)O)Cc1nc2ccccc2s1` [XLI, ((1,3-benzothiazol-2-ylmethyl){[4-methyl-2-(2-naphthyl)-1,3-thiazol-5-yl]carbonyl}amino)acetic Acid], for which the pIC50 is 6.32. For the compound `Cc1nc(-c2ccc3[nH]ccc3c2)sc1C(=O)N(CC(=O)O)Cc1nc2ccccc2s1` [XXXVIII, ((1,3-benzothiazol-2-ylmethyl){[2-(1H-indol-5-yl)-4-methyl-1,3-thiazol-5-yl]carbonyl}amino)acetic Acid], the negative-log IC50 (pIC50) was 6.48. In the case of `COc1cccc(-c2nc(C)c(C(=O)N(CC(=O)O)C(C)c3ccccn3)o2)c1` (stereo not shown) [XXXV, [{[2-(3-methoxyphenyl)-4-methyl-1,3-oxazol-5-yl]carbonyl}(1-pyridin-2-ylethyl)amino]acetic Acid], the pIC50 is 4.72. Regarding `Cc1oc(-c2ccc(N)cc2)nc1C(=O)N(CC(=O)O)Cc1ccccn1` [XXVII, [{[2-(4-aminophenyl)-5-methyl-1,3-oxazol-4-yl]carbonyl}(pyridin-2-ylmethyl)amino]acetic Acid], the pIC50 is 4.66. Still for that read-out and setting: under `Cc1oc(-c2cccc(C(F)(F)F)c2)nc1C(=O)N(CC(=O)O)Cc1ccccn1` [XIV, [({5-methyl-2-[3-(trifluoromethyl)phenyl]-1,3-oxazol-4-yl}carbonyl)(pyridin-2-ylmethyl)amino]acetic Acid] stands 4.46; under `Cc1oc(-c2ccc(C(F)(F)F)cc2)nc1C(=O)N(CC(=O)O)Cc1ccccn1` [XVI, [({5-methyl-2-[4-(trifluoromethyl)phenyl]-1,3-oxazol-4-yl}carbonyl)(pyridin-2-ylmethyl)amino]acetic Acid], 3.85.
